Measured values as given in patent US12570661B2, “Isoform-specific aldehyde dehydrogenase inhibitors” (The Board of Trustees of the Leland Stanford Junior …, priority 2020, dated 2026).
“Also recorded” adds a separate entry of the source. Where two headings read alike, the source gives them in different places.

Assays:
[1] = target: T1, ALDH1B1 (Homo sapiens, UniProt P30837); test: ALDH1B1 enzyme kinetics assay (NADH fluorescence, acetaldehyde substrate); format: biochemical; design: made in house; host or cells: E. coli BL21 (optionally co-expressed with GroEL/GroES); conditions: for ALDH1B1 inhibition / isoform selectivity (in words): enzyme kinetics assays against ALDH isoforms
T1 sequence (P30837 18-517): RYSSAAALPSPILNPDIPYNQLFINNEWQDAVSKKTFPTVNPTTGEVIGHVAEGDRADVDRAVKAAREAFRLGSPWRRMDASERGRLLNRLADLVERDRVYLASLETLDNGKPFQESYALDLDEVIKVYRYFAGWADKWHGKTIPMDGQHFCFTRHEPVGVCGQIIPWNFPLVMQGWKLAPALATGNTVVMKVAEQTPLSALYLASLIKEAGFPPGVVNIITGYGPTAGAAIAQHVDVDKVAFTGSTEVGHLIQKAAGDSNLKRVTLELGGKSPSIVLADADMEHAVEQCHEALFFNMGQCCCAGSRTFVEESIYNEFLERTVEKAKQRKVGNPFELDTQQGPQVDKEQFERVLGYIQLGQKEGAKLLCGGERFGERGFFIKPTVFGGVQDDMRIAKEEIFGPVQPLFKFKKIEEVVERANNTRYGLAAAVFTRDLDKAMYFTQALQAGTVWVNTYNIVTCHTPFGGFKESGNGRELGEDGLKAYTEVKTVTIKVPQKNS
Description: Cloning, expression, and purification of human recombinant ALDH1A1, ALDH1A3, ALDH2, ALDH3A1, ALDH3A2, ALDH4A1, ALDH5A1 and ALDH7A1 isozymes were conducted as described previously (Chen, C. H. et al. (2015) Proc. Natl. Acad. Sci. U.S.A. 112, 3074-3079). Human ALDH1A2 (Origene, SC109995) and ALDH1B1 (T. Hurley, Indiana University) plasmids were cloned into the pET-15b expression vector (Novagen, 69661-3) containing an N-terminal hexahistidine tag. The mitochondria-targeting sequence of ALDH1B1 was also removed. For protein expression without chaperones, the pET-15b based plasmids were transformed into competent BL21 E. coli cells, which were subsequently grown in 1 L of Luria-Bertani medium containing 100 μg/mL ampicillin at 37° C. Once the OD600 value reached 0.6, the culture was transferred to 16° C. and 0.5 mM isopropyl β-d-1-thiogalactopyranoside was introduced to induce protein expression overnight. The bacteria were then pelleted by centrifugation (3000×g, 4° C. for 30 rain) and harvested. 40 mL BugBuster Master Mix buffer (MilliporeSigrna) containing a protease inhibitor cocktail (cOmplete; Roche) was added, and the cells were lysed by mechanically rolling the suspension at room temperature for 25 min. The lysate was centrifuged (16000×g, 4° C. for 30 min), and the soluble fraction was collected and mixed with 2 mL of Ni-NTA Superflow resin (Qiagen). After the mixture was avowed to rock at 4° C. for 1 h, it was used to create a 10-mL gravity column, which was sequentially treated with 40 mL of wash buffer 1 (20 mM sodium phosphate, 500 mM NaCl, 1 mM DTT, 20 mM imidazole, 5% glycerol, pH 7.4) and 25 mL of wash buffer 2 (20 mM sodium phosphate, 500 mM NaCl, 1 mM DTT, 40 mM imidazole, 5% glycerol, pH 7.4). The hexahistidine-tagged protein was then recovered by treated the column with 5 mL elution buffer (20 mM sodium phosphate, 500 mM NaCl, 1 mM DTT, 400 mM imidazole, 5% glycerol, pH 7.4) and collecting 500-μL fractions. The protein concentration for each fraction was measured (500 μL elution volume was collected as one fraction and was immediately mixed with 500 μL glycerol. The protein concentration for each fraction was measured (600 nm Protein Assay Reagent; Thermo Fisher Scientific), and protein-containing fractions were diluted with an equal volume of glycerol and stored at −80° C. Samples from each step were also collected for SDS-PAGE gel analysis. For ALDH1B1 protein co-expression with chaperones, pET-15b-ALDH1B1 and GroEL/GroES (Addgene, plasmid pBB541) plasmids were co-transformed into competent BL21 E. coli cells, which were subsequently grown in 1 L of Luria-Bertani medium containing 100 μg/mL ampicillin and 50 μg/mL spectinomycin at 37° C. The hexahistidine-tagged ALDH1B1 protein was then expressed and purified as described above.
To evaluate compound activities against ALDH isoforms, reaction mixtures consisting of enzyme assay buffer (100 mM sodium phosphate, 1 mM MgCl2, pH 8.0) and 0.1% DMSO, 1 mM β-mercaptoethanol, 1 mM NAD^+, and the bacterially expressed protein were prepared in white opaque 96-well assay plates (100 μL/well, flat-bottom and non-treated; Corning Costar). 5 μg/mL ALDH enzyme was used for single-dose (1, 10, 50 μM) compound test, and 1 μg/mL ALDH enzyme was used for IC50s determination. Acetaldehyde was then added to each well to achieve an initial substrate concentration of 1 mM, and the resulting enzymatic activity was measured based on NADH fluorescence. The fluorescence signal was read over the course of 10 min on a SpectraMax M2e microplate reader (340-nm excitation and 460-nm emission; Molecular Devices) operated by SoftMax Pro software. Compound activities were normalized to a DMSO control, and dose-response inhibition curves were fitted with four-parameter non-linear regression using Prism software. […]

[2] = test system: SW480 cells (adherent); test: Cell viability assay, adherent SW480 cultures; format: cell-based, human; conditions: adherent culture, 7 days
Description: SW480 or HCT116 cells were seeded into regular or Matrigel-coated 96-well plates at a density of 1000 cells/well. The cells were cultured in the corresponding adherent or spheroid culture medium (200 μL/well) containing the designated compounds or an equivalent amount of DMSO vehicle. Each culture was maintained for 7 days, and then cell viabilities were measured using a CellTiter-Glo 3D Cell Viability Assay kit (Promega). Briefly, 100 μL of the culture medium was removed from each well and replaced with 100 μL 3D Cell Assay reagent. The cells in each well were next homogenized by vigorous pipetting, and the plate was incubated for 10 min at room temperature to stabilize the chemiluminescent signal. A 150-μL aliquot from each well was then transferred into a white opaque 96-well assay plate (flat-bottom and non-treated; Corning Costar) and luminescence intensities were measured with a Veritas microplate luminometer (Turner BioSystems).

[3] = test system: NIH-3T3 cells; test: Seahorse oxygen-consumption-rate assay (NIH3T3); format: cell-based, murine; conditions: Mus musculus
[4] = HEK-293T cytotoxicity (cell viability) assay; format: cell-based; conditions: human, HEK-293T cells; adherent HEK-293T, 4-5 days, CellTiter-Glo; read-out: HEK293T GI50
Description: HEK-293T cells were seeded into a 96-well plate at a density of 5×10^3 cells/well and treated with varying concentrations of selected compounds or an equivalent amount of DMSO vehicle. The cells were cultured for 4-5 days without a media change, and after the DMSO-treated cells approached 100% confluence, the cell viabilities were measured using a CellTiter-Glo 3D Cell Viability Assay kit (Promega) and a Veritas microplate luminometer (Turner BioSystems) as described above.

[5] = 1 μg/mL enzyme, 1 mM acetaldehyde, 1 mM NAD+, read-out: ALDH1B1(in vitro) IC50

| SMILES | IC50 [1, 5] [nM] | IC50 ([1]; FIG. 2, panel B, read-out: ALDH1B1 IC50 (dose-response experiments, text)) [nM] | ALDH1B1 inhibition / isoform selectivity (in words) [1] | mode of ALDH1B1 inhibition with respect to NAD+ ([1]; varying NAD+, Lineweaver-Burk) | mode of ALDH1B1 inhibition with respect to acetaldehyde ([1]; varying acetaldehyde, Lineweaver-Burk) | GI50 ([2]; Homo sapiens, SW480, 168 h) [nM] | potency against ALDH1B1 relative to imidazolium 2 (and 8) ([1]; dose-response, FIG. 15 panel d) | activity against other ALDH1 enzymes relative to ALDH1B1 ([1]; dose-response, ALDH1A1, ALDH1A3, ALDH1B1) | IC50 [3] [nM] | GI50 [4] [nM] | GI50 [2] [nM] |
| --- | --- | --- | --- | --- | --- | --- | --- | --- | --- | --- | --- |
| COc1ccccc1-c1ccc(-c2cn(-c3ccccc3OC)c3[n+]2CCCCC3)cc1.[Br-] [Imidazolium 8] | 47 | – | ALDH1B1-specific inhibitors; also recorded: enhanced specificity for ALDH1B1 in comparison to imidazolium 2 | – | – | 850 | comparable potencies | – | 130 | 160 | – |
| COc1ccccc1C1=CN(c2ccc(-c3ccccc3)cc2)C2=NCCCN12 [STL5-T-0002] | 120 | – | – | – | – | – | – | – | 850 | 8900 | 8200 |
| COc1ccccc1-n1cc(-c2ccccn2)[n+]2c1CCCCC2 [Compound 63] | – | – | inactive against ALDH1B1 | – | – | – | – | – | – | – | – |

Second part, led by results:

| IC50 [1, 5] [nM] | IC50 ([1]; FIG. 2, panel B, read-out: ALDH1B1 IC50 (dose-response experiments, text)) [nM] | ALDH1B1 inhibition / isoform selectivity (in words) [1] | mode of ALDH1B1 inhibition with respect to NAD+ ([1]; varying NAD+, Lineweaver-Burk) | mode of ALDH1B1 inhibition with respect to acetaldehyde ([1]; varying acetaldehyde, Lineweaver-Burk) | GI50 ([2]; Homo sapiens, SW480, 168 h) [nM] | potency against ALDH1B1 relative to imidazolium 2 (and 8) ([1]; dose-response, FIG. 15 panel d) | SMILES | activity against other ALDH1 enzymes relative to ALDH1B1 ([1]; dose-response, ALDH1A1, ALDH1A3, ALDH1B1) | IC50 [3] [nM] | GI50 [4] [nM] | GI50 [2] [nM] |
| --- | --- | --- | --- | --- | --- | --- | --- | --- | --- | --- | --- |
| 42 | 57 | most potent | uncompetitive | non-competitive | 570 | – | COc1ccccc1-n1cc(-c2ccc(-c3ccccc3)cc2)[n+]2c1CCCCC2 [Imidazolium 2] | over an order of magnitude weaker activity against other ALDH1 enzymes | 180 | 230 | – |
| 47 | – | – | – | – | 5800 | – | COc1ccccc1C1=CN(c2ccc(-c3ccccc3)cc2)C2=NCCCCN12 [HPI-273] | – | 190 | 2800 | – |
